Here are results for 13 compounds from PubChem BioAssay AID248 (DTP/NCI, 2004).

Structures are written as SMILES. Toxic doses and inconclusive results are not listed.

This assay relates to L1210 leukemia ip in BDF1 mice, survival T/C. Nature of the assay: NCI In Vivo Anticancer Drug Screen. Data for tumor model L1210 Leukemia (intraperitoneal) in B6D2F1 (BDF1) mice. To be noted: higher = longer survival. Put shortly: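 Transplanted-tumor mice were given test agent; controls received vehicle only. Survival readings from the two groups were divided (treated over control).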

The mark [1] stands for this setting: endpoint: mean survival time, dose: 100.0 mg/kg/injection, schedule: Q01DX009 (ip), vehicle: Klucel (hydroxypropylcellulose) (HPC).
Where [2] appears, read: endpoint: mean survival time, dose: 100.0 mg/kg/injection, schedule: Q04DX003 (ip), vehicle: saline with Tween-80.
Setting [3] is: endpoint: mean survival time, dose: 200.0 mg/kg/injection, schedule: Q04DX003 (ip), vehicle: saline with Tween-80.
[4] abbreviates: endpoint: mean survival time, dose: 400.0 mg/kg/injection, schedule: Q04DX003 (ip), vehicle: saline with Tween-80.
Where [5] appears, read: endpoint: mean survival time, dose: 100.0 mg/kg/injection, schedule: Q01DX001 (ip), vehicle: saline.

For the compound `CCSN1C(=O)c2ccccc2C1=O`, the T/C is 92 % of control (endpoint: mean survival time, dose: 25.0 mg/kg/injection, schedule: Q04DX002 (ip), vehicle: Klucel (hydroxypropylcellulose) (HPC)); 100 % of control (endpoint: mean survival time, dose: 50.0 mg/kg/injection, schedule: Q04DX002 (ip), vehicle: Klucel (hydroxypropylcellulose) (HPC)); 92 % of control (endpoint: mean survival time, dose: 100.0 mg/kg/injection, schedule: Q04DX002 (ip), vehicle: Klucel (hydroxypropylcellulose) (HPC)).

`CC(C)CN(C)/N=N/c1nc[nH]c1C(N)=O`: the T/C (endpoint: mean survival time, dose: 33.0 mg/kg/injection, schedule: Q01DX009 (ip), vehicle: carboxymethylcellulose (CMC)) was 114 % of control; the T/C (endpoint: mean survival time, dose: 37.0 mg/kg/injection, schedule: Q01DX Z (ip), vehicle: carboxymethylcellulose (CMC)) is 170 % of control; the T/C (endpoint: mean survival time, dose: 50.0 mg/kg/injection, schedule: Q01DX Z (ip), vehicle: carboxymethylcellulose (CMC)) is 156 % of control; the T/C (endpoint: mean survival time, dose: 75.0 mg/kg/injection, schedule: Q01DX Z (ip), vehicle: carboxymethylcellulose (CMC)) is 167 % of control; the T/C (endpoint: mean survival time, dose: 80.0 mg/kg/injection, schedule: Q01DX015 (ip), vehicle: carboxymethylcellulose (CMC)) was 109 % of control; the T/C (endpoint: mean survival time, dose: 100.0 mg/kg/injection, schedule: Q01DX001 (ip), vehicle: carboxymethylcellulose (CMC)) is 116 % of control. The T/C reads like this: (endpoint: mean survival time, dose: 120.0 mg/kg/injection, schedule: Q01DX009 (ip), vehicle: carboxymethylcellulose (CMC)) 86 % of control; (endpoint: mean survival time, dose: 134.0 mg/kg/injection, schedule: Q01DX001 (ip), vehicle: carboxymethylcellulose (CMC)) 106 % of control; (endpoint: mean survival time, dose: 134.0 mg/kg/injection, schedule: Q01DX015 (ip), vehicle: carboxymethylcellulose (CMC)) 109 % of control; (endpoint: mean survival time, dose: 178.0 mg/kg/injection, schedule: Q01DX001 (ip), vehicle: carboxymethylcellulose (CMC)) 106 % of control; (endpoint: mean survival time, dose: 200.0 mg/kg/injection, schedule: Q01DX001 (ip), vehicle: carboxymethylcellulose (CMC)) 122 % of control; (endpoint: mean survival time, dose: 267.0 mg/kg/injection, schedule: Q01DX001 (ip), vehicle: carboxymethylcellulose (CMC)) 110 % of control. Further, the T/C was 151 % of control (endpoint: mean survival time, dose: 400.0 mg/kg/injection, schedule: Q01DX001 (ip), vehicle: carboxymethylcellulose (CMC)); 122 % of control (endpoint: median survival time, dose: 12.5 mg/kg/injection, schedule: Q01DX009 (ip), vehicle: steriod suspending solution); 111 % of control (endpoint: median survival time, dose: 25.0 mg/kg/injection, schedule: Q01DX009 (ip), vehicle: steriod suspending solution); 175 % of control (endpoint: median survival time, dose: 50.0 mg/kg/injection, schedule: Q01DX011 (ip), vehicle: steriod suspending solution); 155 % of control (endpoint: median survival time, dose: 100.0 mg/kg/injection, schedule: Q01DX009 (ip), vehicle: steriod suspending solution); 168 % of control (endpoint: median survival time, dose: 100.0 mg/kg/injection, schedule: Q01DX011 (ip), vehicle: steriod suspending solution).

Take `COc1cc(/C=N/N=C(N)N)ccc1O`: the T/C is 95 % of control (endpoint: mean survival time, dose: 15.0 mg/kg/injection, schedule: Q01DX Z (ip), vehicle: saline); 88 % of control (endpoint: mean survival time, dose: 30.0 mg/kg/injection, schedule: Q01DX Z (ip), vehicle: saline); 101 % of control (endpoint: mean survival time, dose: 60.0 mg/kg/injection, schedule: Q01DX Z (ip), vehicle: saline); 97 % of control (endpoint: mean survival time, dose: 120.0 mg/kg/injection, schedule: Q01DX Z (ip), vehicle: saline); 89 % of control (endpoint: mean survival time, dose: 240.0 mg/kg/injection, schedule: Q01DX Z (ip), vehicle: saline).

For `C#Cc1ccc([N+](=O)[O-])cc1`, the T/C under setting [1] is 95 % of control; the T/C (endpoint: mean survival time, dose: 100.0 mg/kg/injection, schedule: Q04DX003 (ip), vehicle: Klucel (hydroxypropylcellulose) (HPC)) was 88 % of control; the T/C (endpoint: mean survival time, dose: 200.0 mg/kg/injection, schedule: Q01DX009 (ip), vehicle: Klucel (hydroxypropylcellulose) (HPC)) was 94 % of control; the T/C (endpoint: mean survival time, dose: 200.0 mg/kg/injection, schedule: Q04DX003 (ip), vehicle: Klucel (hydroxypropylcellulose) (HPC)) was 91 % of control; the T/C (endpoint: mean survival time, dose: 400.0 mg/kg/injection, schedule: Q01DX009 (ip), vehicle: Klucel (hydroxypropylcellulose) (HPC)) is 95 % of control; the T/C (endpoint: mean survival time, dose: 400.0 mg/kg/injection, schedule: Q04DX003 (ip), vehicle: Klucel (hydroxypropylcellulose) (HPC)) was 93 % of control.

On to `CC(=O)N/C(=C\c1ccccc1)C(N)=O`, for which the T/C is, setting by setting: under setting [2], 91 % of control; under setting [3], 97 % of control; under setting [4], 96 % of control.

For the compound `CCOC(=O)CN(CC)CC(=O)OCC`, the T/C reads like this: (endpoint: mean survival time, dose: 75.0 mg/kg/injection, schedule: Q01DX009 (ip), vehicle: saline with Tween-80) 107 % of control; under setting [2], 93 % of control; (endpoint: mean survival time, dose: 150.0 mg/kg/injection, schedule: Q01DX009 (ip), vehicle: saline with Tween-80) 107 % of control; under setting [3], 98 % of control; (endpoint: mean survival time, dose: 300.0 mg/kg/injection, schedule: Q01DX009 (ip), vehicle: saline with Tween-80) 109 % of control; under setting [4], 101 % of control.

Turning to `CCCCCCCCCCCCn1cnc2c(=S)nc[nH]c21`, the T/C was 106 % of control (endpoint: mean survival time, dose: 12.5 mg/kg/injection, schedule: Q01DX005 (ip), vehicle: other); 101 % of control (endpoint: mean survival time, dose: 25.0 mg/kg/injection, schedule: Q01DX005 (ip), vehicle: other); 100 % of control (endpoint: mean survival time, dose: 50.0 mg/kg/injection, schedule: Q01DX005 (ip), vehicle: other); 106 % of control (endpoint: mean survival time, dose: 100.0 mg/kg/injection, schedule: Q01DX005 (ip), vehicle: other); 89 % of control (endpoint: mean survival time, dose: 200.0 mg/kg/injection, schedule: Q01DX005 (ip), vehicle: other).

As for `CC(C)(C)C(=O)C(O)C(C)(C)C` (stereo unspecified), the T/C runs as follows: under setting [5], 95 % of control; (endpoint: mean survival time, dose: 200.0 mg/kg/injection, schedule: Q01DX001 (ip), vehicle: saline) 97 % of control; (endpoint: mean survival time, dose: 400.0 mg/kg/injection, schedule: Q01DX001 (ip), vehicle: saline) 93 % of control.

Regarding `CCCCOC(OCCCC)C(C)(C)CN(C)C`, the T/C by setting is: (endpoint: mean survival time, dose: 12.5 mg/kg/injection, schedule: Q04DX002 (ip), vehicle: saline) 117 % of control; (endpoint: mean survival time, dose: 25.0 mg/kg/injection, schedule: Q04DX002 (ip), vehicle: saline) 105 % of control; (endpoint: mean survival time, dose: 50.0 mg/kg/injection, schedule: Q04DX002 (ip), vehicle: saline) 98 % of control.

On to `CN(C)c1ccc2c(c1)Cc1cc(N=C3C=CC(=O)O3)ccc1-2`, for which the T/C (endpoint: mean survival time, dose: 25.0 mg/kg/injection, schedule: Q01DX009 (ip), vehicle: saline) was 100 % of control; the T/C (endpoint: mean survival time, dose: 25.0 mg/kg/injection, schedule: Q04DX003 (ip), vehicle: acetone) is 95 % of control; the T/C (endpoint: mean survival time, dose: 50.0 mg/kg/injection, schedule: Q01DX009 (ip), vehicle: saline) was 97 % of control; the T/C (endpoint: mean survival time, dose: 50.0 mg/kg/injection, schedule: Q04DX003 (ip), vehicle: acetone) was 92 % of control; the T/C under setting [5] was 89 % of control; the T/C (endpoint: mean survival time, dose: 100.0 mg/kg/injection, schedule: Q01DX009 (ip), vehicle: saline) is 94 % of control. Besides, the T/C (endpoint: mean survival time, dose: 100.0 mg/kg/injection, schedule: Q04DX003 (ip), vehicle: acetone) is 88 % of control.

Turning to `CCN(CC)CCN(C(=S)Nc1ccccc1)c1ccccc1`, the T/C reads like this: (endpoint: mean survival time, dose: 25.0 mg/kg/injection, schedule: Q01DX009 (ip), vehicle: Klucel (hydroxypropylcellulose) (HPC)) 103 % of control; (endpoint: mean survival time, dose: 50.0 mg/kg/injection, schedule: Q01DX009 (ip), vehicle: Klucel (hydroxypropylcellulose) (HPC)) 102 % of control; under setting [1], 96 % of control.

For `O=[N+]([O-])c1ccc(Cl)c2ccccc12`, the T/C reads like this: (endpoint: mean survival time, dose: 12.5 mg/kg/injection, schedule: Q01DX009 (ip), vehicle: saline with Tween-80) 94 % of control; (endpoint: mean survival time, dose: 25.0 mg/kg/injection, schedule: Q01DX009 (ip), vehicle: saline with Tween-80) 91 % of control; (endpoint: mean survival time, dose: 50.0 mg/kg/injection, schedule: Q01DX009 (ip), vehicle: saline with Tween-80) 87 % of control; (endpoint: mean survival time, dose: 100.0 mg/kg/injection, schedule: Q01DX009 (ip), vehicle: saline with Tween-80) 91 % of control; (endpoint: mean survival time, dose: 200.0 mg/kg/injection, schedule: Q01DX009 (ip), vehicle: saline with Tween-80) 88 % of control.

With `CCCC[S][Sn-]([CH2]CCC)([CH2]CCC)[CH2]CCC`, the T/C (endpoint: mean survival time, dose: 6.25 mg/kg/injection, schedule: Q04DX003 (ip), vehicle: saline with Tween-80) was 101 % of control; the T/C (endpoint: mean survival time, dose: 12.5 mg/kg/injection, schedule: Q04DX003 (ip), vehicle: saline with Tween-80) is 109 % of control; the T/C (endpoint: mean survival time, dose: 25.0 mg/kg/injection, schedule: Q04DX002 (ip), vehicle: saline with Tween-80) is 93 % of control; the T/C (endpoint: mean survival time, dose: 25.0 mg/kg/injection, schedule: Q04DX003 (ip), vehicle: saline with Tween-80) was 98 % of control.
